Measurements reported in ChEMBL document CHEMBL1201862, “PubChem BioAssay data set” (2004).
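96-well plates; 48 h exposure; 5 concentrations. Endpoints by linear interpolation between flanking doses. Not reached: highest tested concentration assigned. Here, GI50 denotes the concentration required for 50% inhibition of growth.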 Calls of active or inactive are those of the source. Rule as the data show it: active = GI50 up to about 1.1 µM and inactive = higher.

How the values were obtained:
Assay in all cases: inhibition of tumour cell growth, NCI panel, 48 h
M19-MEL = system: M19-MEL
COLO 205 = system: COLO 205
SN12C = system: SN12C
NCI-H23 = system: NCI-H23
PC-3 = system: PC-3
SK-MEL-5 = system: SK-MEL-5
HT-29 = system: HT-29
SF-539 = system: SF-539
SNB-75 = system: SNB-75
SW-620 = system: SW-620
MOLT-4 = system: MOLT-4
CCRF-CEM = system: CCRF-CEM
EKVX = system: EKVX
HCT-15 = system: HCT-15
A549 = system: A549
786-0 = system: 786-0
Malme-3M = system: Malme-3M
NCI/ADR-RES = system: NCI/ADR-RES
OVCAR-3 = system: OVCAR-3
T47D = system: T47D
SK-OV-3 = system: SK-OV-3
OVCAR-8 = system: OVCAR-8
SF-295 = system: SF-295
A498 = system: A498
HOP-92 = system: HOP-92
Hs-578T = system: Hs-578T
XF498 = system: XF498
KM-20L2 = system: KM-20L2
MDA-MB-231 = system: MDA-MB-231
SF-268 = system: SF-268
SK-MEL-28 = system: SK-MEL-28
NCI-H226 = system: NCI-H226
SK-MEL-2 = system: SK-MEL-2
NCI-H460 = system: NCI-H460
RXF 631 = system: RXF 631
HL-60 = system: HL-60
MCF7 = system: MCF7
HCC 2998 = system: HCC 2998
ACHN = system: ACHN
DMS-114 = system: DMS-114
SNB-19 = system: SNB-19
MDA-MB-435 = system: MDA-MB-435
RPMI-8226 = system: RPMI-8226
LOX IMVI = system: LOX IMVI
CAKI-1 = system: CAKI-1
K562 = system: K562
BT-549 = system: BT-549
KM12 = system: KM12
SR = system: SR
OVCAR-4 = system: OVCAR-4
IGROV-1 = system: IGROV-1
U-251 = system: U-251
DMS-273 = system: DMS-273
UACC-62 = system: UACC-62
MDA-N = system: MDA-N
DLD-1 = system: DLD-1
HOP-62 = system: HOP-62
RXF 393 = system: RXF 393
DU-145 = system: DU-145
UO-31 = system: UO-31
M14 = system: M14
NCI-H522 = system: NCI-H522
LXFL 529 = system: LXFL 529
HCT-116 = system: HCT-116
OVCAR-5 = system: OVCAR-5
SNB-78 = system: SNB-78
TK-10 = system: TK-10
UACC-257 = system: UACC-257
HOP-18 = system: HOP-18

How did the GI50 (M19-MEL) turn out when COc1c(OC(C)=O)c(OC(C)=O)cc2c1-c1ccc(OC)c(=O)cc1C(NC(C)=O)CC2 (stereo not drawn) was run?
The GI50 was < 16.7 nM (active).

What about the GI50 (COLO 205) of the same compound?
The GI50 was 17.1 nM (active).

What about the GI50 (SN12C) of the same compound?
Its GI50 is 34.8 nM (active).

What about the GI50 (NCI-H23) of the same compound?
Its GI50 is 19.9 nM (active).

What about the GI50 (PC-3) of the same compound?
The GI50 was 49.3 nM (active).

And the GI50 (SK-MEL-5)?
The GI50 was 11.6 nM (active).

What about the GI50 (HT-29) of the same compound?
Its GI50 is 19.8 nM (active).

What about the GI50 (SF-539) of the same compound?
Its GI50 is < 12.2 nM (active).

And the GI50 (SNB-75)?
Its GI50 is < 10 nM (active).

What about the GI50 (SW-620) of the same compound?
Its GI50 is < 12.5 nM (active).

And the GI50 (MOLT-4)?
Its GI50 is 15.5 nM (active).

What about the GI50 (CCRF-CEM) of the same compound?
Its GI50 is 13 nM (active).

What about the GI50 (EKVX) of the same compound?
Its GI50 is 8510 nM (inactive).

What about the GI50 (HCT-15) of the same compound?
Its GI50 is 465 nM.

And the GI50 (A549)?
The GI50 was 209 nM (active).

What about the GI50 (786-0) of the same compound?
The GI50 was 27 nM (active).

What about the GI50 (Malme-3M) of the same compound?
Its GI50 is < 10 nM (active).

What about the GI50 (NCI/ADR-RES) of the same compound?
Its GI50 is 1600 nM (inactive).

What about the GI50 (OVCAR-3) of the same compound?
The GI50 was 13.8 nM (active).

What about the GI50 (T47D) of the same compound?
Its GI50 is > 100000 nM (inactive).

What about the GI50 (SK-OV-3) of the same compound?
The GI50 was 2290 nM (inactive).

And the GI50 (OVCAR-8)?
The GI50 was 25.4 nM (active).

And the GI50 (SF-295)?
The GI50 was 42.4 nM (active).

And the GI50 (A498)?
Its GI50 is 51.3 nM (active).

What about the GI50 (HOP-92) of the same compound?
Its GI50 is 17.3 nM (active).

What about the GI50 (Hs-578T) of the same compound?
Its GI50 is < 10 nM (active).

And the GI50 (XF498)?
Its GI50 is 31.1 nM (active).

What about the GI50 (KM-20L2) of the same compound?
Its GI50 is 22.2 nM (active).

What about the GI50 (MDA-MB-231) of the same compound?
The GI50 was 12.9 nM (active).

What about the GI50 (SF-268) of the same compound?
The GI50 was 21.8 nM (active).

What about the GI50 (SK-MEL-28) of the same compound?
The GI50 was < 36.3 nM (active).

What about the GI50 (NCI-H226) of the same compound?
Its GI50 is 331 nM (active).

What about the GI50 (SK-MEL-2) of the same compound?
The GI50 was 18.6 nM (active).

And the GI50 (NCI-H460)?
Its GI50 is 45.1 nM (active).

What about the GI50 (RXF 631) of the same compound?
The GI50 was 67.6 nM (active).

What about the GI50 (HL-60) of the same compound?
The GI50 was < 10 nM (active).

And the GI50 (MCF7)?
The GI50 was < 10 nM (active).

And the GI50 (HCC 2998)?
Its GI50 is 21.7 nM (active).

And the GI50 (ACHN)?
The GI50 was 439 nM (active).

And the GI50 (DMS-114)?
Its GI50 is < 12.7 nM (active).

What about the GI50 (SNB-19) of the same compound?
Its GI50 is 33.6 nM (active).

What about the GI50 (MDA-MB-435) of the same compound?
The GI50 was < 10 nM (active).

What about the GI50 (RPMI-8226) of the same compound?
The GI50 was < 14.2 nM (active).

What about the GI50 (LOX IMVI) of the same compound?
Its GI50 is < 14.7 nM (active).

And the GI50 (CAKI-1)?
The GI50 was 54 nM (active).

And the GI50 (K562)?
The GI50 was < 12.3 nM (active).

And the GI50 (BT-549)?
Its GI50 is > 100000 nM (inactive).

What about the GI50 (KM12) of the same compound?
Its GI50 is 15.4 nM (active).

What about the GI50 (SR) of the same compound?
Its GI50 is 12.8 nM (active).

What about the GI50 (OVCAR-4) of the same compound?
Its GI50 is 31900 nM (inactive).

And the GI50 (IGROV-1)?
Its GI50 is 25.4 nM (active).

What about the GI50 (U-251) of the same compound?
Its GI50 is 32.1 nM (active).

And the GI50 (DMS-273)?
Its GI50 is 17.2 nM (active).

And the GI50 (UACC-62)?
The GI50 was < 10 nM (active).

And the GI50 (MDA-N)?
The GI50 was < 10 nM (active).

And the GI50 (DLD-1)?
The GI50 was 18.6 nM (active).

What about the GI50 (HOP-62) of the same compound?
Its GI50 is 63.5 nM (active).

What about the GI50 (RXF 393) of the same compound?
The GI50 was < 10 nM (active).

What about the GI50 (DU-145) of the same compound?
The GI50 was 52.5 nM (active).

And the GI50 (UO-31)?
The GI50 was 4860 nM (inactive).

And the GI50 (M14)?
Its GI50 is < 12.5 nM (active).

And the GI50 (NCI-H522)?
Its GI50 is 11.4 nM (active).

What about the GI50 (LXFL 529) of the same compound?
The GI50 was < 10 nM (active).

And the GI50 (HCT-116)?
The GI50 was 21.5 nM (active).

What about the GI50 (OVCAR-5) of the same compound?
The GI50 was 2610 nM (inactive).

What about the GI50 (SNB-78) of the same compound?
Its GI50 is < 10 nM (active).

And the GI50 (TK-10)?
The GI50 was 2700 nM (inactive).

What does the source list for CC(C)N(C(=O)C12C3C4C1(I)C1C2C3(I)C41C(=O)N(C(C)C)C(C)C)C(C)C (stereo not drawn)?
GI50 (M19-MEL): > 47000 nM (inactive); GI50 (COLO 205): > 57300 nM (inactive); GI50 (SN12C): > 100000 nM (inactive); GI50 (NCI-H23): > 100000 nM (inactive); GI50 (SK-MEL-5): > 100000 nM (inactive); GI50 (HT-29): > 100000 nM (inactive); GI50 (SF-539): > 43900 nM (inactive); GI50 (SNB-75): > 73100 nM (inactive); GI50 (SW-620): > 39200 nM (inactive); GI50 (MOLT-4): > 100000 nM (inactive); GI50 (CCRF-CEM): > 41800 nM (inactive); GI50 (EKVX): > 100000 nM (inactive); GI50 (HCT-15): > 43300 nM; GI50 (A549): > 100000 nM (inactive); GI50 (786-0): > 45700 nM (inactive); GI50 (Malme-3M): > 100000 nM (inactive); GI50 (OVCAR-3): > 100000 nM (inactive); GI50 (SK-OV-3): > 100000 nM (inactive); GI50 (OVCAR-8): > 100000 nM (inactive); GI50 (SF-295): > 100000 nM (inactive); GI50 (A498): > 100000 nM (inactive); GI50 (HOP-92): > 100000 nM (inactive); GI50 (XF498): > 100000 nM (inactive); GI50 (KM-20L2): > 100000 nM (inactive); GI50 (SF-268): > 100000 nM (inactive); GI50 (SK-MEL-28): > 100000 nM (inactive); GI50 (NCI-H226): > 100000 nM (inactive); GI50 (SK-MEL-2): > 100000 nM (inactive); GI50 (NCI-H460): > 100000 nM (inactive); GI50 (RXF 631): > 100000 nM (inactive); GI50 (HL-60): > 44900 nM (inactive); GI50 (UACC-257): > 100000 nM (inactive); GI50 (HCC 2998): > 100000 nM (inactive); GI50 (ACHN): > 100000 nM (inactive); GI50 (SNB-19): > 100000 nM (inactive); GI50 (RPMI-8226): > 52200 nM (inactive); GI50 (LOX IMVI): > 43500 nM (inactive); GI50 (CAKI-1): > 100000 nM (inactive); GI50 (K562): > 43400 nM (inactive); GI50 (KM12): > 43200 nM (inactive); GI50 (OVCAR-4): > 58500 nM (inactive); GI50 (IGROV-1): > 100000 nM (inactive); GI50 (U-251): > 71000 nM (inactive); GI50 (DMS-273): > 100000 nM (inactive); GI50 (HOP-18): > 100000 nM (inactive); GI50 (UACC-62): > 100000 nM (inactive); GI50 (DLD-1): > 56500 nM (inactive); GI50 (HOP-62): > 100000 nM (inactive); GI50 (RXF 393): > 100000 nM (inactive); GI50 (UO-31): > 100000 nM (inactive); GI50 (M14): > 100000 nM (inactive); GI50 (NCI-H522): > 75900 nM (inactive); GI50 (LXFL 529): > 67600 nM (inactive); GI50 (HCT-116): > 100000 nM (inactive); GI50 (OVCAR-5): > 100000 nM (inactive); GI50 (TK-10): > 100000 nM (inactive)
